Data on 7 molecules can be found in ChEMBL document CHEMBL4825686, “HTS-based discovery and optimization of novel positive allosteric modulators of the α7 nicotinic acetylcholine receptor” (Eur J Med Chem, 2021).

SMILES strings stand for the structures. Converted amounts (≈) assume the structure as drawn.

In data set [1] the target is T1, Neuronal acetylcholine receptor subunit alpha-7 (Homo sapiens, UniProt P36544). As to the kind of experiment: Positive allosteric modulator activity at human alpha7 nAChR expressed in Flp-In-HEK293 cells co-expressing RIC-3 assessed as potentiation of PNU282987-induced calcium influx at 1 uM measured after 10 mins by FLIPR assay. Type of data set: cell-based. As to conditions: Flp-In-293.

The target in data set [2] is T1, Neuronal acetylcholine receptor subunit alpha-7. As to the kind of experiment: Positive allosteric modulator activity at human alpha7 nAChR expressed in Flp-In-HEK293 cells co-expressing RIC-3 assessed as potentiation of PNU282987-induced calcium influx at 10 uM measured after 10 mins by FLIPR assay. Format: cell-based. To be noted: Flp-In-293.
Data set [3] in a line: Mutagenicity in Salmonella typhimurium TA1535 in absence of rat liver S9 fraction by AMES test. Type of data set: toxicity. To be noted: salmonella enterica subsp. enterica serovar typhimurium.
Data set [4] in a line: Metabolic stability in Wistar rat liver microsomes assessed as intrinsic clearance at 1 uM measured per mg protein upto 40 mins. Type of data set: ADME, Microsome. As to conditions: read-out: CLH. (In general: Microsomes from liver hold many membrane-bound enzymes, among them those of drug oxidation.)
Data set [5] can be described thus: Mutagenicity in Escherichia coli WP2 uvrA in presence of rat liver S9 fraction by AMES test. Type of data set: toxicity, subcellular.
Data set [6] in a line: Metabolic stability in NMRI mouse liver microsomes assessed as intrinsic clearance at 1 uM measured per mg protein upto 40 mins. Type of data set: ADME, Microsome. To be noted: read-out: CLH.
Data set [7] addresses T1, Neuronal acetylcholine receptor subunit alpha-7. Kind of data set: Positive allosteric modulator activity at human alpha7 nAChR expressed in Flp-In-HEK293 cells co-expressing RIC-3 assessed as potentiation of PNU282987-induced calcium influx measured after 10 mins by FLIPR assay. Format: cell-based, Flp-In-293. As to conditions: read-out: EC50.
The nature of data set [8]: Mutagenicity in Salmonella typhimurium TA100 in presence of rat liver S9 fraction by AMES test. Format: toxicity, subcellular. As to conditions: salmonella enterica subsp. enterica serovar typhimurium.
Data set [9] can be described thus: Mutagenicity in Salmonella typhimurium TA1535 in presence of rat liver S9 fraction by AMES test. Format: toxicity, subcellular. To be noted: salmonella enterica subsp. enterica serovar typhimurium.
The nature of data set [10]: Mutagenicity in Salmonella typhimurium TA1537 in presence of rat liver S9 fraction by AMES test. Type of data set: toxicity, subcellular. As to conditions: salmonella enterica subsp. enterica serovar typhimurium.
The nature of data set [11]: Mutagenicity in Salmonella typhimurium TA98 in presence of rat liver S9 fraction by AMES test. Format: toxicity, subcellular. As to conditions: salmonella enterica subsp. enterica serovar typhimurium.
Data set [12] can be described thus: Kinetic solubility of compound. Type of data set: physicochemical. As to conditions: read-out: Kinetic_solubility.
A short description of data set [13]: Mutagenicity in Salmonella typhimurium TA100 in absence of rat liver S9 fraction by AMES test. Format: toxicity. To be noted: salmonella enterica subsp. enterica serovar typhimurium.
A short description of data set [14]: Mutagenicity in Escherichia coli WP2 uvrA in absence of rat liver S9 fraction by AMES test. Format: toxicity.
Data set [15] is described as follows: Metabolic stability in human liver microsomes assessed as intrinsic clearance at 1 uM measured per mg protein upto 40 mins. Type of data set: ADME, Microsome. To be noted: read-out: CLH.
Data set [16] in a line: Mutagenicity in Salmonella typhimurium TA98 in absence of rat liver S9 fraction by AMES test. Format: toxicity. To be noted: salmonella enterica subsp. enterica serovar typhimurium.
A short description of data set [17]: Mutagenicity in Salmonella typhimurium TA1537 in absence of rat liver S9 fraction by AMES test. Format: toxicity. To be noted: salmonella enterica subsp. enterica serovar typhimurium.

T1 sequence (P36544 whole entry): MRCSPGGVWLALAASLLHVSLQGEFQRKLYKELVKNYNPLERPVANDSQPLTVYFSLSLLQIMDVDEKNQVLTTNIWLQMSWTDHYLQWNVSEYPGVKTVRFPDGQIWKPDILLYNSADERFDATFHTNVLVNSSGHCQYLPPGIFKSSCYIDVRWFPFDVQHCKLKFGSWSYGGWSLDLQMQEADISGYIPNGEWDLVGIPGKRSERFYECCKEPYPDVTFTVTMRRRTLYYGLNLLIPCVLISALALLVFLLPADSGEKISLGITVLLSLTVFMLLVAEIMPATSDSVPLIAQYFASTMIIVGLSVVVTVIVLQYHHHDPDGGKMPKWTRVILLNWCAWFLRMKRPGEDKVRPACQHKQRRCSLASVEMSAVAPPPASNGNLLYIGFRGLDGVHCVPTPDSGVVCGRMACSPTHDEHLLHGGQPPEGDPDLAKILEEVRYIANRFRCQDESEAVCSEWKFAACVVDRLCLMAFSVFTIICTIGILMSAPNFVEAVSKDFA

On to `Cc1ccc(O[C@H]2CC[C@@H](C(=O)NCc3ccc4c(ccn4C)c3)CC2)cc1`, for which the Activity in data set [1] worked out at 16%.
Consider `Cc1ccc(CC2CCN(C(=O)NC(=O)c3ccc4c(ccn4C)c3)CC2)cc1`, for which the Activity in data set [2] was found to be 37%.
Broadly, the EC50 is the midpoint of the concentration-response curve. For the molecule `Cc1ccc(CN2CCN(C(=O)C(=O)Nc3ccc4c(c3)c(C)cn4C)CC2)cc1`, the Activity result in data set [3], in data set [5], in [8], in data set [9], in data set [10] and in data set [11] was “Toxic” each time. The Activity entry in data set [13], in [14], in [16] and in data set [17] was “Toxic” throughout. Further, the microsomal CLint at 1 µM was 140 µL/min/mg in data set [4], 198 µL/min/mg in data set [6] and 17 µL/min/mg in [15]. Moreover, the EC50 in [7] worked out at 920 nM. The solubility kinetic in data set [12] is 5 µM (≈ 2.02 µg/mL).
Take `Cc1ccc(OC2CCN(C(=O)C(=O)Nc3ccc4c(ccn4C)c3)C2)cc1` (stereo unspecified): in data set [2], the Activity worked out at 25%.
For the molecule `Cc1ccc(OC2CCCN(C(=O)C(=O)Nc3ccc4c(ccn4C)c3)CC2)cc1` (stereo unspecified), in data set [1], the Activity was determined as 13%.
Consider `Cc1ccc(CN2CCN(C(=O)C(=O)Cc3ccc4c(ccn4C)c3)CC2)cc1`, for which the Activity in data set [2] was 7%.
`Cc1ccc(CN2CCC(C(=O)NCc3ccc4c(ccn4C)c3)CC2)cc1`: in data set [2], the Activity turned out to be 12%.
